This experiment relates to mouse bone marrow cells. Nature of the experiment: Alkaline phosphatase (ALP) activity assay in mouse bone marrow cells (marker for osteoblast differentiation). Also noted: dose or concentration left out as unconfirmed. Conditions: mice bone marrow cells, 3 weeks exposure; with ascorbic acid and β-glycerolphosphate; stimulation more pronounced than genistein. The format is cell-based. How it is done:
Bone marrow cells were isolated from six months old female NMRI mice. After washing, the cells were diluted in phenol red free α-MEM (1% p/s, 15% charcoal treated FCS) and seeded in 24-well plates (1.25*10^6 cells/well). After 24 hours incubation (37° C., 5% CO2) the cells were exposed to the active components (1*10^−5, 1*10^−6 and 1*10^−7 M) together with ascorbic acid (50 μg/ml) and β-glycerolphosphate (1 mM). Exposure media were refreshed every 3 days. After 2 and 3 weeks of incubation, cells were washed with PBS and stored at −20° C. After lysis DNA amounts and alkaline phosphatase activities were determined as described below. The DNA amounts are measured to determine to the number of cells and the alkaline phosphatase activity is used as a marker for osteoblast differentiation. 300 μl lysis buffer (1×SSC/0.01% SDS) was added to the frozen cells. After 1 hour incubation (37° C.) the plates were sonified for 10 minutes and cell suspensions were used for ALP activity measurements. 25 μl cell lysate was transferred in duplicate to 96-well plates. 25 μl of 1*SSC/0.01% SDS served as a negative control. […] ALP activity was measured at a wavelength of 405 nm at room temperature during 10 minutes at 30-second intervals. […] Activity is expressed as nmol p-nitrophenol production/minute/well. (Mean±sem, 2 independent experiments measured in duplicate)

`O=c1cc(-c2ccc(O)c(O)c2)oc2cc(O)cc(O)c12` [luteolin]: the “alkaline phosphatase signal in differentiated osteoblasts” value was “increased alkaline phosphatase signal”.
As to `O=c1cc(-c2ccc(O)cc2)oc2cc(O)cc(O)c12` [apigenin], the “alkaline phosphatase signal in differentiated osteoblasts” value was “increased alkaline phosphatase signal”.

These data come from US20040152640A1, “Preparation for the prevention and or treatment of altered bone metabolism” (priority 2001, published 2004).
